These results are taken from patent US9459254B2, “Method for determining sensitivity to an anticancer agent” (KEIO UNIVERSITY, priority 2009, dated 2016).

In data set [1] the test system is DLD-1 cells. The experiment in a line: SELDI-TOF MS intracellular protein expression after drug exposure, DLD-1. Format: cell-based, human. How it is done: (§1) The 5-FU+SN-38 combination concentration was adjusted to the following four levels: 2 μM+10 nM, 2 μM+100 nM, 100 μM+10 nM, and 100 μM+100 nM, the 5-FU concentration (exposure to single agent) was adjusted to 2 μM and 100 μM, and the SN-38 concentration (exposure to single agent) was adjusted to 10 nM and 100 nM. In addition, the exposure test was conducted at a drug-free concentration (control). That is, nine concentrations in total were employed. Drug exposure time was adjusted to the following four periods of time: 0 hour (just before exposure), 4 hours, 24 hours, and 48 hours. After completion of exposure, cell count was performed, and intracellular proteins were extracted.
(§2) The medium was removed from the dish and washed thrice with ice-cooled PBS. The cells on the dish was collected by scraping with a rubber policeman. The thus-obtained cell suspension was transferred to a 1.5-mL microtube. The cell suspension was centrifuged at 4° C. and 1,200×g for 10 minutes, and the cells were recovered. After removal of the supernatant, a cell lysis buffer (9 mol/L urea, 2% CHAPS, 1 mM DTT, protease-inhibitor cocktail (Sigma)) was added in a volume of 200 μL with respect to 10,000,000 cells. The liquid was subjected to untrasonic treatment under cooling with ice. The thus-treated product was centrifuged at 4° C. and 16,000×g for 20 minutes, and the supernatant was quickly frozen with liquid nitrogen. The frozen product was stored at −80° C. before analysis. An aliquot of the supernatant was subjected to protein quantification (DC Protein Assay Kit, Bio-Rad).
(§3) The protein sample was mixed with a cell lysis buffer (excluding protease inhibitor), to thereby adjust the protein concentration to 2.5 mg/mL. The liquid was further mixed with a dilution/washing buffer (pH: 4.5, 50 mM sodium acetate buffer) (hereinafter referred to simply as “buffer”), to a protein concentration of 0.5 mg/mL. The thus-prepared sample (100 μL) was applied to spots of a cation-exchange ProteinChip array (CM10, Bio-Rad) which had been conditioned in advance with the same buffer. […]

Data set [2] concerns HCT116 cells. The experiment in a line: MTS assay cell viability after drug exposure, HCT116. On the technique in general: Tetrazolium dyes change colour on reduction, which living cells bring about.
Experimental: (§4) Two colorectal cancer lines (HCT116 and DLD-1, obtained from ECACC) were exposed to a drug, and 48 hours and 72 hours after drug exposure, cell viability was determined by means of an MTS assay (CellTiter96™ AQueous One Solution Cell Proliferation Assay, Promega). Drug exposure conditions were as follows. 5-FU (single agent) was used at the following 11 concentrations: control (0 μM), 0.001 μM, 0.01 μM, 0.1 μM, 1 μM, 3 μM, 10 μM, 30 μM, 100 μM, 1,000 μM, and 10,000 μM. SN-38 (single agent) was used at the following 11 concentrations; control (0 nM), 0.001 nM, 0.01 nM, 0.1 nM, 0.3 nM, 1 nM, 3 nM, 10 nM, 30 nM, 100 nM, and 1,000 nM. In the case of 5-FU/SN-38 combination, 5-FU was used at 2 μM, 10 μM, 30 μM, and 100 μM (4 concentrations), and SN-38 was used at 0.001 nM, 0.01 nM, 0.1 nM, 0.3 nM, 1 nM, 3 nM, 10 nM, 30 nM, 100 nM, and 1,000 nM (10 concentrations); i.e., 40 concentrations were employed. […]
(§5) Sensitivity analysis was performed from viability data calculated from MTS assay results. The presence or absence of combined effect was determined through comparison of viability obtained by exposure to a combination with that obtained by exposure to a single agent at the same concentration as employed at the exposure to the combination.
The subject of data set [3] is DLD-1 cells. In words: MTS assay cell viability after drug exposure, DLD-1.
Experimental: as §4, §5
The subject of data set [4] is HCT116 cells. The experiment in a line: SELDI-TOF MS intracellular protein expression after drug exposure, HCT116. It is filed as cell-based, human. The method, then:
as §1, §2, §3

For data set [5] the following is noted: compared with CPT-11; cited from earlier work.

Molecules are shown by their SMILES.

With `CCc1c2c(nc3ccc(O)cc13)-c1cc3c(c(=O)n1C2)COC(=O)[C@]3(O)CC` [SN-38, 7-ethyl-10-hydroxycamptothecin], in data set [1], the “intracellular protein A level after drug exposure” value is given as “no significant difference” and the “intracellular protein B level after drug exposure” value is on record as “no significant difference”. In addition, the cell viability entry in data set [2] (HCT116, 100 nM SN-38, 72 hours) was “about 24%”. For the same molecule, the cell viability result in data set [3] (DLD-1, 100 nM SN-38, 72 hours) is “about 76%”. In data set [4], the “intracellular protein A level (m/z 16,450 to 16,620) after drug exposure” value was “protein level increase” and the “intracellular protein B level (m/z 22,080 to 22,310) after drug exposure” value is on record as “protein level increase”. In data set [5], the “anti-tumor activity relative to that of CPT-11” value was “about 100 times to some thousand times”.

Take `O=c1[nH]cc(F)c(=O)[nH]1` [5-FU, Fluorouracil]: the “intracellular protein A level after drug exposure” value in data set [1] is listed as “no significant difference”. Besides, the cell viability result is “about 24%” in data set [2] (HCT116, 100 μM 5-FU, 48 hours) and “about 49%” in data set [3] (DLD-1, 100 μM 5-FU, 48 hours). In data set [4], the “intracellular protein A level (m/z 16,450 to 16,620) after drug exposure” value is on record as “protein level increase”.
